The values that follow come from US20040009904A1, “APL immunoreactive peptides, conjugates thereof and methods of treatment for aPL antibody-mediated pathologies” (priority 1995, published 2004).

Bridge positions count the residues as written; N and C are the ends. Square brackets hold non-standard residues; d marks the D form. Ends that are not written are not given here. Peptide text beside a SMILES is read from it. NMeL = CN[C@@H](CC(C)C)C(=O)O; Phg = N[C@H](C(=O)O)c1ccccc1; Orn = NCCC[C@H](N)C(=O)O; ATU = not defined here; Aib = CC(C)(N)C(=O)O

The experiment addresses ACA-6501. In words: Competitive binding peptide ACA ELISA, cardiolipin/β2-GPI-coated plates. Also noted: species or system human. As to conditions: Optimization of Peptide 3G3; inf = no 50% inhibition. The protocol:
A variation of this assay uses microtitration plates coated with human β2-glycoprotein I/cardiolipin (β2-GPI/CL) instead of tetravalent peptide and tests the ability of monomeric peptides to block the binding of aPL antibody to the epitope(s) on β2-GPI/CL. In this assay, IgG-depleted human serum at an optimized concentration is used as a source of β2-GPI. The monomeric peptides at several concentrations are incubated with an optimized concentration of aPL antibody in a manner analogous to the assay which employs tetravalent peptide as a plate substrate. Following the incubation of aPL/peptide in (β2-GPI/CL) plates, antibody binding and the peptide concentration required for 50% inhibition is determined at half-maximal absorbance as in the tetravalent assay.
Peptide sequences for all five peptides immediately follow the table. All were tested using the competitive binding peptide ACA ELISA using CL/β2-GPI plates as described herein.
(B) Immulon I® 96-well, flat-bottom, polystyrene microtitration plates (Dynatech Laboratories, Inc., Chantilly, Va.) were coated with 30 μL/well of cardiolipin (CL, 50 μg; Sigma Chemical Co., St. Louis, Mo.) in ethanol. Two control wells received 30 μL ethanol only. After overnight evaporation at 4° C., each well was blocked with 200 μL of 5% (w/v) fish gelatin in PBS for 2 hours at RT.
During this incubation, variable amounts of each of six peptides were mixed with 22 μL ACA-6501 serum diluted with 3% fish gelatin in 1:1 TBS/PBS (final dilution of 1:400) in a final volume of 220 μL using Eppendorf microcentrifuge tubes. Specifically, in tube #1 were mixed 181.3 μL of 3% fish gelatin in TBS-PBS, 16.7 μL of peptide stock solution plus 22 μL of ACA-6501 serum diluted 40 times in 3% fish gelatin/TBS-PBS. Stock solutions ranged from 450-800 μg/mL for peptides #951 (diserine non-cyclized negative control), #952 (a lot of LJP 690), and thioethers CCTE-3G3, CHTE-3G3, HCTE-3G3 and HHTE-3G3. To tube #2 the following were added: 148 μL fish gelatin/TBS-PBS, […] of peptide stock solution, plus 22 μL of 40 times diluted ACA-6501 serum. Tube #3 contained 48 μL fish gelatin/TBS-PBS, […] of peptide stock solution, plus 22 μL of 40 times diluted ACA-6501 serum. The control tube #4 received 396 μL fish gelatin/TBS-PBS and 44 μL of 40 times diluted ACA-6501 serum (no peptide). Each of the tubes incubated for approximately 1 hour at RT.
The CL/β2-GPI microtitration plate was washed 5 times with TBS and 100 μL aliquots in duplicate from Eppendorf tubes #1, 2, 3, and 4 containing the antibody-peptide (or no peptide mixtures) were added to the wells. A volume of 100 μL from tube #4 was added to the duplicate control wells containing no cardiolipin. The microtitration plate was incubated for 1 hour at RT with agitation at 40 rpm in an orbital shaker (American Scientific, Rotator V), washed 5 times with TBS and then 100 μL of 1:1000 goat anti-human IgG alkaline phosphatase conjugate (Zymed, Cat No. 62-8422) in 0.5% (w/v) BSA-TBS was added. Following incubation for 1 hour at RT, the microtitration plate was again washed 5 times with TBS and the colorimetric enzyme detection developed by adding 100 μL of PMPP solution (7.8 g phenolphthalein monophosphate plus 69.5 g of 2-amino-2-methyl-1-propanol in 100 mL water stock solution diluted 1:26 with water). After 21 minutes, the reaction was stopped by adding 50 μL of 0.2 M Na2HPO4 (Mallinckrodt) to each well. Absorbance at 550 nm was read in a microplate reader (Bio-Tek Instruments, Model EL 311). The amount of peptide that inhibited ACA-6501 binding by 50%, the IC50, was calculated from the graph at the intersection of half-maximal absorbance with amount of peptide added.
For orientation: An ELISA detects its analyte on a solid surface through an enzyme-linked reagent.
On to `CC(C)C[C@@H]1NC(=O)[C@H](CCCCN)NC(=O)CNC(=O)[C@H](CC(C)C)NC(=O)[C@H](C(C)C)NC(=O)CNC(=O)C(C)(C)NC(=O)[C@@H](N)CSSC[C@@H](C(=O)O)NC1=O` [C aiB G V L G K L C] (H-C[Aib]GVLGKLC-OH; disulfide 1-9), for which the “with ACA 6501 150 ug/mL” value is 370 µg/mL. As for `CC(C)C[C@@H]1NC(=O)[C@H](C)NC(=O)CNC(=O)[C@H](CC(C)C)NC(=O)[C@@H](N)CSSC[C@@H](C(=O)O)NC(=O)[C@H](CC(C)C)NC(=O)[C@H](CCCCN)NC(=O)CNC1=O` [C L G A L G K L C] (H-CLGALGKLC-OH; disulfide 1-9), the figure is 260 µg/mL; as for “C L G V L G K L C ATU-Y (CLGVLGKLC; C-terminal ATU-Y extension)”, 300 µg/mL; as for `CC(C)C[C@@H]1NC(=O)[C@@H](NC(=O)[C@@H]2CCCN2)CSSC[C@@H](C(=O)N2CCC[C@H]2C(=O)NCC(=O)O)NC(=O)[C@H](CC(C)C)NC(=O)[C@H](CCCCN)NC(=O)CNC(=O)[C@H](CC(C)C)NC(=O)[C@H](C(C)C)NC(=O)CNC1=O` [P C L G V L G K L C P G] (H-PCLGVLGKLCPG-OH; disulfide 2-10), 420 µg/mL. For `CC(C)C[C@@H]1NC(=O)[C@@H](NC(=O)[C@@H]2CCCN2C(=O)CN)CSSC[C@@H](C(=O)N2CCC[C@H]2C(=O)NCC(=O)O)NC(=O)[C@H](CC(C)C)NC(=O)[C@H](CCCCN)NC(=O)CNC(=O)[C@H](CC(C)C)NC(=O)[C@H](C(C)C)NC(=O)CNC1=O` [G P C L G V L G K L C P G] (H-GPCLGVLGKLCPG-OH; disulfide 3-11), the “with ACA 6501 150 ug/mL” value turned out to be 180 µg/mL.

On to `CC(C)C[C@@H]1NC(=O)[C@H](CCCCN)NC(=O)CNC(=O)[C@H](c2ccccc2)NC(=O)[C@H](C(C)C)NC(=O)CNC(=O)[C@H](CC(C)C)NC(=O)[C@@H](N)CSSC[C@@H](C(=O)O)NC1=O` [C L G Vp G G K L C] (H-CLGV[Phg]GKLC-OH; disulfide 1-9), for which the “with ACA 6501 150 ug/mL” value was 35 µg/mL.

On to `CC(C)C[C@@H]1NC(=O)[C@H](CCCCN)NC(=O)CNC(=O)[C@H](CC(C)C)NC(=O)[C@@H]2CCCN2C(=O)CNC(=O)[C@H](CC(C)C)NC(=O)[C@@H](N)CSSC[C@@H](C(=O)O)NC1=O` [C L G P L G K L C] (H-CLGPLGKLC-OH; disulfide 1-9), for which the “with ACA 6501 150 ug/mL” value is 180 µg/mL.

For the molecule `CC(C)C[C@@H]1NC(=O)[C@H](CCCCN)NC(=O)CNC(=O)[C@H](CC(C)C)NC(=O)[C@H](C(C)C)NC(=O)CNC(=O)[C@@H](CC(C)C)NC(=O)[C@@H](N)CSSC[C@@H](C(=O)O)NC1=O` [CdL G V L G K L C] (H-C[dL]GVLGKLC-OH; disulfide 1-9), the “with ACA 6501 150 ug/mL” value turned out to be 180 µg/mL. With `CC(C)C[C@@H]1NC(=O)[C@H](CCCNC(=N)N)NC(=O)CNC(=O)[C@H](CC(C)C)NC(=O)[C@H](C(C)C)NC(=O)CNC(=O)[C@H](CC(C)C)NC(=O)[C@@H](N)CSSC[C@@H](C(=O)O)NC1=O` [C L G V L G R L C] (H-CLGVLGRLC-OH; disulfide 1-9) the figure was 160 µg/mL.

Consider “Y ATU C L G V L G K L C ({Tyr-ATU}-CLGVLGKLC; cysteine pairing not given here; reading uncertain)”, for which the “with ACA 6501 150 ug/mL” value was determined as 170 µg/mL. `CC[C@H](C)[C@@H]1NC(=O)[C@@H](N)CSSC[C@@H](C(=O)O)NC(=O)[C@H](CC(C)C)NC(=O)[C@H](CCCCN)NC(=O)CNC(=O)[C@H](CC(C)C)NC(=O)[C@H](C(C)C)NC(=O)CNC1=O` [C I G V L G K L C] (H-CIGVLGKLC-OH; disulfide 1-9): the “with ACA 6501 150 ug/mL” value was found to be 60 µg/mL. On to `CC(C)C[C@@H]1NC(=O)[C@H](C(C)C)NC(=O)CNC(=O)[C@H](CC(C)C)NC(=O)[C@@H](N)CSSC[C@@H](C(=O)O)NC(=O)[C@H](c2ccccc2)NC(=O)[C@H](CCCCN)NC(=O)CNC1=O` [C L G V L G K pG C] (H-CLGVLGK[Phg]C-OH; disulfide 1-9), for which the “with ACA 6501 150 ug/mL” value came out at 80 µg/mL. With CLGVLCKLC [C L G V L C K L C] the figure was 500 µg/mL. With `CC(C)C[C@@H]1NC(=O)[C@H](CCCCN)NC(=O)[C@@H](C)NC(=O)[C@H](CC(C)C)NC(=O)[C@H](C(C)C)NC(=O)CNC(=O)[C@H](CC(C)C)NC(=O)[C@@H](N)CSSC[C@@H](C(=O)O)NC1=O` [C L G V L dA K L C] (H-CLGVL[dA]KLC-OH; disulfide 1-9) the figure was 140 µg/mL. For the molecule `CC(C)C[C@@H]1NC(=O)[C@H](CCCCN)NC(=O)CNC(=O)[C@H](CC(C)C)NC(=O)[C@H](C(C)C)NC(=O)[C@@H]2CCCN2C(=O)[C@H](CC(C)C)NC(=O)[C@@H](N)CSSC[C@@H](C(=O)O)NC1=O` [C L P V L G K L C] (H-CLPVLGKLC-OH; disulfide 1-9), the “with ACA 6501 150 ug/mL” value stood at 340 µg/mL. With `CC(C)C[C@@H]1NC(=O)[C@H](CCCCN)NC(=O)CNC(=O)[C@H](CC(C)C)NC(=O)[C@H](C(C)C)NC(=O)CNC(=O)[C@H](CC(C)C)NC(=O)[C@@H](N)CSSC[C@@H](C(=O)N2CCC[C@H]2C(=O)NCC(=O)O)NC1=O` [C L G V L G K L C P G] (H-CLGVLGKLCPG-OH; disulfide 1-9) the figure was 460 µg/mL; with C L G V aiB G K L C, “inf”.

On to CLGVLGGLC [C L G V L G G L C], for which the “with ACA 6501 150 ug/mL” value is given as “inf”. With `CC(C)C[C@@H]1NC(=O)[C@H](CCCCN)NC(=O)C(C)(C)NC(=O)[C@H](CC(C)C)NC(=O)[C@H](C(C)C)NC(=O)CNC(=O)[C@H](CC(C)C)NC(=O)[C@@H](N)CSSC[C@@H](C(=O)O)NC1=O` [C L G V L aiB K L C] (H-CLGVL[Aib]KLC-OH; disulfide 1-9) the figure was 110 µg/mL; with `CC(C)C[C@@H]1NC(=O)[C@H](CCCCN)NC(=O)CNC(=O)[C@H](CC(C)C)NC(=O)[C@H](c2ccccc2)NC(=O)CNC(=O)[C@H](CC(C)C)NC(=O)[C@@H](N)CSSC[C@@H](C(=O)O)NC1=O` [C L G pG L G K L C] (H-CLG[Phg]LGKLC-OH; disulfide 1-9), 70 µg/mL. For `CC(C)C[C@@H]1NC(=O)[C@H](CCCN)NC(=O)CNC(=O)[C@H](CC(C)C)NC(=O)[C@H](C(C)C)NC(=O)CNC(=O)[C@H](CC(C)C)NC(=O)[C@@H](N)CSSC[C@@H](C(=O)O)NC1=O` [C L G V L G Or L C] (H-CLGVLG[Orn]LC-OH; disulfide 1-9), the “with ACA 6501 150 ug/mL” value is 40 µg/mL.

In the case of `CC(C)C[C@@H]1NC(=O)[C@H](CCCCN)NC(=O)CNC(=O)[C@H](CC(C)C)NC(=O)[C@H](C(C)C)NC(=O)CNC(=O)CNC(=O)[C@@H](N)CSSC[C@@H](C(=O)O)NC1=O` [C G G V L G K L C] (H-CGGVLGKLC-OH; disulfide 1-9), the “with ACA 6501 150 ug/mL” value worked out at 310 µg/mL.

CLGVPGKLC [C L G V P G K L C]: the “with ACA 6501 150 ug/mL” value is “Inf”. With `CC(C)C[C@@H]1NC(=O)[C@H](CCCCN)NC(=O)CNC(=O)[C@H](CC(C)C)NC(=O)[C@H](C(C)C)NC(=O)C(C)(C)NC(=O)[C@H](CC(C)C)NC(=O)[C@@H](N)CSSC[C@@H](C(=O)O)NC1=O` [C L aiB V L G K L C] (H-CL[Aib]VLGKLC-OH; disulfide 1-9) the figure was 80 µg/mL. As to `CC(C)C[C@@H]1NC(=O)[C@H](C(C)C)NC(=O)CNC(=O)[C@H](CC(C)C)NC(=O)[C@@H](N)CSSC[C@@H](C(=O)O)NC(=O)[C@H](CC(C)C)N(C)C(=O)[C@H](CCCCN)NC(=O)CNC1=O` [C L G V L G K nL C] (H-CLGVLGK[NMeL]C-OH; disulfide 1-9), the “with ACA 6501 150 ug/mL” value stood at 240 µg/mL. As for CLGVGGKLC [C L G V G G K L C], the entry is “inf”.
